Source: PubChem BioAssay (NCI)
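Growth conditions: 96-well plates. Treatment: test compound, 48 hours, 5 concentrations. Analysis: linear interpolation between bracketing concentrations; unreached endpoints set to highest concentration. GI50 marks 50% less growth. TGI is the concentration that stops growth completely.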

Tests used:
Assay in all cases: inhibition of tumour cell growth, NCI panel, 48 h
DLD-1 colon = test system: DLD-1 colon
DMS 114 small cell lung = test system: DMS 114 small cell lung
DMS 273 small cell lung = test system: DMS 273 small cell lung
KM20L2 colon = test system: KM20L2 colon
LOX IMVI melanoma = test system: LOX IMVI melanoma
M14 melanoma = test system: M14 melanoma
SNB-78 CNS = test system: SNB-78 CNS
HS 578T breast = test system: HS 578T breast
MDA-MB-435 = test system: MDA-MB-435
PC-3 prostate = test system: PC-3 prostate
TK-10 renal = test system: TK-10 renal
XF 498 CNS = test system: XF 498 CNS
SR leukemia = test system: SR leukemia

CC(C)CCC[C@@H](C)C1CCC2[C@@H]3CC=C4C[C@@H](C(=O)NCC[N+](C)(C)CCCS(=O)(=O)[O-])CC[C@]4(C)C3CC[C@@]21C (some centres undefined)
TGI (DLD-1 colon): 49.7 µM | TGI (DMS 114 small cell lung): 35.7 µM | TGI (DMS 273 small cell lung): 31.4 µM | TGI (KM20L2 colon): 30.4 µM | TGI (LOX IMVI melanoma): 25.2 µM | TGI (M14 melanoma): 31.6 µM | TGI (SNB-78 CNS): 37.4 µM

O=C(O)CNc1ccc(C(=O)O)cc1
TGI (HS 578T breast): > 100 µM | TGI (LOX IMVI melanoma): > 100 µM | TGI (M14 melanoma): > 100 µM | TGI (MDA-MB-435): > 100 µM | TGI (PC-3 prostate): > 100 µM | TGI (TK-10 renal): > 100 µM

S=P1(N2CCCCC2)Oc2ccc3ccccc3c2-c2c(ccc3ccccc23)O1
TGI (DLD-1 colon): > 100 µM | TGI (DMS 114 small cell lung): > 100 µM | TGI (DMS 273 small cell lung): > 100 µM | TGI (KM20L2 colon): > 100 µM | TGI (LOX IMVI melanoma): > 100 µM | TGI (SNB-78 CNS): > 100 µM | TGI (XF 498 CNS): > 100 µM

O=[N+]([O-])c1ccccc1NC1c2ccccc2Oc2ccccc21
GI50 (HS 578T breast): 8.35 µM | TGI (HS 578T breast): > 100 µM | GI50 (LOX IMVI melanoma): 5.52 µM | TGI (LOX IMVI melanoma): > 100 µM | GI50 (M14 melanoma): 3.53 µM | TGI (M14 melanoma): > 100 µM | GI50 (MDA-MB-435): 2.5 µM | TGI (MDA-MB-435): 6.64 µM | GI50 (PC-3 prostate): 5.88 µM | TGI (PC-3 prostate): > 100 µM | GI50 (SR leukemia): 3.32 µM | TGI (SR leukemia): > 100 µM | GI50 (TK-10 renal): 29.1 µM | TGI (TK-10 renal): > 100 µM

Cc1ccc([N+](=O)[O-])cc1S(=O)(=O)Nc1ccc(C2=NNC(c3ccccc3O)C2)cc1 (centres undefined)
TGI (HS 578T breast): > 100 µM | TGI (LOX IMVI melanoma): > 100 µM | TGI (M14 melanoma): 51.6 µM | TGI (MDA-MB-435): 50.6 µM | TGI (PC-3 prostate): > 100 µM | TGI (SR leukemia): 87.7 µM | TGI (TK-10 renal): > 100 µM

CN1CCCCC(C#N)(c2ccccc2)CC1 (centres undefined)
TGI (HS 578T breast): > 100 µM | TGI (M14 melanoma): > 100 µM | TGI (PC-3 prostate): > 100 µM | TGI (SR leukemia): > 100 µM | TGI (TK-10 renal): > 100 µM

N=C(N)c1ccc(-c2ccc(-c3ccccc3)s2)cc1
GI50 (HS 578T breast): 1.94 µM | TGI (HS 578T breast): 5.04 µM | GI50 (M14 melanoma): 1.68 µM | TGI (M14 melanoma): 3.51 µM | GI50 (MDA-MB-435): 1.66 µM | TGI (MDA-MB-435): 3.03 µM | GI50 (PC-3 prostate): 1.76 µM | TGI (PC-3 prostate): 3.47 µM | GI50 (SR leukemia): 0.668 µM | TGI (SR leukemia): 4.13 µM

CC(=O)Oc1ccc2c(c1)oc1c3ccc(OC(C)=O)cc3n(C)c(=O)c21
TGI (HS 578T breast): > 100 µM | TGI (M14 melanoma): > 100 µM | TGI (MDA-MB-435): > 100 µM | TGI (PC-3 prostate): > 100 µM | TGI (SR leukemia): > 100 µM | TGI (TK-10 renal): > 100 µM

C=C1C(=O)C[C@@]23CCC[C@@]12CC(OCOC)C3 (some centres undefined)
TGI (DLD-1 colon): 4.81 µM | TGI (DMS 114 small cell lung): 5.13 µM | TGI (DMS 273 small cell lung): 6.65 µM | TGI (KM20L2 colon): 9.02 µM | TGI (LOX IMVI melanoma): 3.87 µM | TGI (SNB-78 CNS): 22.5 µM | TGI (XF 498 CNS): 8.33 µM

N=c1c2c(=S)n(-c3ccccc3)c(=S)n(-c3ccccc3)c2nc(SCCCN2CCN(c3cccc(Cl)c3)CC2)n1-c1ccccc1
TGI (HS 578T breast): > 100 µM | TGI (LOX IMVI melanoma): > 100 µM | TGI (MDA-MB-435): > 100 µM | TGI (PC-3 prostate): > 100 µM | TGI (SR leukemia): > 100 µM | TGI (TK-10 renal): > 100 µM

Cc1cc(C)c2c(c1)CC1(Cc3c(C)ccc(C)c3C1=O)C2=O (centres undefined)
TGI (HS 578T breast): > 100 µM | TGI (M14 melanoma): > 100 µM | TGI (MDA-MB-435): > 100 µM | TGI (PC-3 prostate): > 100 µM | TGI (SR leukemia): > 100 µM | TGI (TK-10 renal): > 100 µM

CCCCCCCC/C=C\CCCCCCCC(=O)O
TGI (DLD-1 colon): 221 µM | TGI (DMS 114 small cell lung): 194 µM | TGI (DMS 273 small cell lung): 210 µM | TGI (KM20L2 colon): > 500 µM | TGI (LOX IMVI melanoma): 239 µM | TGI (SNB-78 CNS): 130 µM | TGI (XF 498 CNS): 13.6 µM

COC(=O)c1cccc(N[C@@H]2c3cc4c(cc3C(c3cc(OC)c(O)c(OC)c3)[C@H]3C(=O)OCC32)OCO4)c1 (some centres undefined)
TGI (DLD-1 colon): 15 µM | TGI (DMS 114 small cell lung): 4.3 µM | TGI (DMS 273 small cell lung): 3.35 µM | TGI (KM20L2 colon): > 32.7 µM | TGI (LOX IMVI melanoma): 11.3 µM | TGI (SNB-78 CNS): 98.7 µM | TGI (XF 498 CNS): > 27.4 µM

CCN(CC)CCCNc1ncc(C)c2[nH]c3ccncc3c12
TGI (DLD-1 colon): > 79.9 µM | TGI (DMS 114 small cell lung): 24.1 µM | TGI (DMS 273 small cell lung): 25.8 µM | TGI (KM20L2 colon): 31 µM | TGI (LOX IMVI melanoma): 14.9 µM | TGI (SNB-78 CNS): > 100 µM | TGI (XF 498 CNS): 24 µM

COc1cc(/C=C/c2cc(/C=C/c3ccc(O)c(OC)c3)nc(N)n2)ccc1O
GI50 (HS 578T breast): 0.524 µM | TGI (HS 578T breast): 2.99 µM | GI50 (PC-3 prostate): 1.48 µM | TGI (PC-3 prostate): 5.57 µM | GI50 (SR leukemia): 0.72 µM | TGI (SR leukemia): 3.58 µM | GI50 (TK-10 renal): 3.39 µM | TGI (TK-10 renal): 9.54 µM

O=C(O)CS
TGI (DLD-1 colon): > 100 µM | TGI (DMS 114 small cell lung): > 100 µM | TGI (DMS 273 small cell lung): > 100 µM | TGI (KM20L2 colon): > 100 µM | TGI (LOX IMVI melanoma): > 100 µM | TGI (SNB-78 CNS): > 100 µM | TGI (SR leukemia): > 100 µM | TGI (TK-10 renal): > 100 µM | TGI (XF 498 CNS): > 100 µM
